Measured values reported in patent US11278682B2, “Device and method for aerosolized delivery of substance to a natural orifice of the body” (SIPNOSE LTD., priority 2014, dated 2022).

Assays:
patients = assay: Midazolam pre-medication sedation (BIS EEG monitoring), 3 mg, SipNose vs commercial nasal pump; format: in vivo, human; conditions: for failures in inducing anesthesia: both comparisons pooled (3 mg and 1.4 mg)
Description: A comparison was made of the efficacy of delivery of the anesthetic Midazolam, when used for pre-medication, between an embodiment of the SipNose device of the present invention and a prior-art device, the commercial nasal pump based on positive displacement (as the pump used for Alrin™ delivery) and the MAD Nasal from Wolfe Tory.
Comparison with nasal pump (using 5 mg/ml solution): For a pre-medication procedure with commercial nasal pump (positive displacement pump), in order to achieve the desired dose of 3 mg Midazolam, the delivery device was inserted into a nostril and an aliquot of Midazolam is delivered. The delivery device is then inserted into the opposite nostril and a second aliquot of Midazolam is delivered. This is repeated twice more with a 30 s intervals between each cycle, for a total of six aliquots of Midazolam, three in each nostril. As opposed to that, for a SipNose device delivery, a single dose of 0.6 ml was delivered to one nostril.
In order to determine the efficacy of anesthetization a BIS EEG monitoring was used, where the BIS values for brain activity are calculated from the EEG activity. Awake, unsedated individuals typically have BIS values ≥97. Mildly sedated individuals typically have BIS values in the 80's, moderately sedated individuals typically have BIS values in the 70's, while fully sedated individuals typically have BIS values below about 70; BIS values between about 45 and about 60 are commonly used for general anesthesia during the maintenance phase of an operation.
Two comparisons were made between the commercial device and the present, SipNose, device. In the first, 3 mg of Midazolam was administered and the commercial device was a commercial nasal pump (positive displacement), in the second, 1.4 mg of Midazolam was administered and the commercial device was a MAD applicator.

[1] = Dose-response of Midazolam brain concentration; format: in vivo, rat; conditions: rats; doses about 0.6 to about 6 mg/kg; brain concentration 60 minutes after administration
Description: In this example, doses of Midazolam between about 0.6 mg/kg and about 6 mg/kg were administered to rats and the concentration of Midazolam in the brain was measured 60 minutes after administration.

[2] = commercial nasal pump, 3 mg Midazolam

**Q.** Which Adverse events (patients; SipNose device, 3 mg Midazolam) does the source give for `Cc1ncc2n1-c1ccc(Cl)cc1C(c1ccccc1F)=NC2` [Midazolam] here?
**A.** The Adverse events was 0.

**Q.** What about the “Level of minimum BIS” value (patients; SipNose device, 3 mg Midazolam) of the same molecule?
**A.** Its value is 74.5±9.

**Q.** What about the Mean onset time (patients; SipNose device, 3 mg Midazolam) of the same molecule?
**A.** The Mean onset time was 5.9 ± 4.6 min.

**Q.** And the “level of Maximum BIS” value (patients; SipNose device, 3 mg Midazolam)?
**A.** Its value is 97.

**Q.** And the “sleep score (1 not sleepy, 2 sleepy or calm, 3 sleeping)” value (patients; SipNose device, 3 mg Midazolam)?
**A.** The value was 3.

**Q.** What about the “Number of Positive Sedations” value (patients; SipNose device, 3 mg Midazolam, 8 patients) of the same molecule?
**A.** The value was 8.

**Q.** What about the “failures in inducing anesthesia” value (patients; SipNose device) of the same molecule?
**A.** The value was “no failures in 10 patients”.

**Q.** What about the “sleep score (1 not sleepy, 2 sleepy or calm, 3 sleeping)” value (patients; commercial device (nasal pump), 3 mg Midazolam) of the same molecule?
**A.** The value was “less than 2”.

**Q.** And the “failures in inducing anesthesia” value (patients; commercial devices)?
**A.** The value was 2 failures and one partial failure in 6 patients.

**Q.** And the Adverse events (patients; [2])?
**A.** The Adverse events was 0.

**Q.** What about the “Level of minimum BIS” value (patients; [2]) of the same molecule?
**A.** The value was 87.5±5.3.

**Q.** What about the Mean onset time (patients; [2]) of the same molecule?
**A.** Its Mean onset time is 6.7 ± 4.6 min.

**Q.** What about the “Minimum BIS excluding failure” value (patients; [2]) of the same molecule?
**A.** Its value is 85.

**Q.** What about the “level of Maximum BIS” value (patients; [2]) of the same molecule?
**A.** Its value is 97.

**Q.** What about the “Number of Positive Sedations” value (patients; commercial nasal pump, 3 mg Midazolam, 4 patients) of the same molecule?
**A.** The value was 3.

**Q.** And the “dose-response curve of brain concentration” value [1]?
**A.** The value was “essentially linear”.
